The source of these data is publication PMC5986058 (FEBS Open Bio, 2018).

The target of assay [1] is T1, LTAaj (L-threonine aldolase from Aeromonas jandaei; L-allo-threonine aldolase) (Aeromonas jandaei, UniProt O07051).
T1 construct: gene ltaA; C-terminal His-tag, expressed in E. coli BL21(DE3), Ni-NTA purified, homotetramer, PLP-dependent
T1 sequence (O07051 1-338): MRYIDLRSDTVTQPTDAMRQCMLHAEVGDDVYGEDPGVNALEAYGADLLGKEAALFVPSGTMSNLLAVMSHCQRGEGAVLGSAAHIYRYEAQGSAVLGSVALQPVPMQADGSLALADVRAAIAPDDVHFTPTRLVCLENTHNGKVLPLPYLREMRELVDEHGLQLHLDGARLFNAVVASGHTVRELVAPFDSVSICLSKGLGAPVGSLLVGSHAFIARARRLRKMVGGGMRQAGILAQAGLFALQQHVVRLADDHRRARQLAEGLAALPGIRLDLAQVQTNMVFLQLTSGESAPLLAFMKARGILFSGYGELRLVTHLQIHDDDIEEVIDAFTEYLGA
Put plainly: UV-vis spectroscopy of internal aldimine ([…]-420 nm). The format is binding. The conditions noted are these: 50 mM sodium phosphate pH 8.0, 22 °C; covalent Schiff base with K199.

For assay [2], the target named is T1, LTAaj (L-threonine aldolase from Aeromonas jandaei; L-allo-threonine aldolase). As to the kind of experiment: UV-vis spectroscopy of external aldimine ([…] nm) and quinonoid ([…] nm). The conditions noted are these: 50 mM sodium phosphate pH 8.0, 22 °C, 0.1 M glycine; PLP enzyme; covalent. In kind it is binding.

With `Cc1ncc(COP(=O)(O)O)c(C=O)c1O` [PLP], the “UV-vis spectroscopy of internal aldimine (410-420 nm)” value in assay [1] is on record as “Formation of the (A) internal aldimine”. For the compound `NCC(=O)O` [glycine], in assay [2], the “UV-vis spectroscopy of external aldimine (420 nm) and quinonoid (495 nm)” value was “external aldimine with the glycine substrate in the wild type LTAaj and its mutants”.
